Bridge positions count the residues as written; N and C are the ends. Side chains are listed from the residue outwards. Peptide text beside a SMILES is read from it. * marks the point of attachment. Butanoyl(4-(4-I-phenyl)) = O=C(CCCc1ccc(I)cc1)*; PEG2 = NCCOCCOCCC(=O)O
Key:
integrin αvβ6 [1] = molecular target: T1, integrin αvβ6 (Homo sapiens, UniProt P06756+P18564); assay: AlphaLISA competition assay vs LAP, biotinylated αvβ6; format: binding
integrin αvβ3 [2] = molecular target: T2, integrin αvβ3 (Homo sapiens, UniProt P05106+P06756); assay: AlphaLISA competition assay vs LAP, biotinylated αvβ3; format: binding
integrin αvβ8 [3] = molecular target: T3, integrin αvβ8 (Homo sapiens, UniProt P06756+P26012); assay: AlphaLISA competition assay vs LAP, biotinylated αvβ8; format: binding
integrin αvβ5 = integrin αvβ5 (Homo sapiens, UniProt P06756+P18084); assay: ELISA competition assay, integrin αvβ5; format: binding
integrin α8β1 = integrin α8β1 (Homo sapiens, UniProt P05556+P53708); assay: ELISA competition assay, integrin α8β1; format: binding
integrin α5β1 = integrin α5β1 (Homo sapiens, UniProt P05556+P08648); assay: ELISA competition assay, integrin α5β1; format: binding
integrin αvβ6 [4] = molecular target: T1, integrin αvβ6; assay: ELISA competition assay, integrin αvβ6 binding to LAP; details: αvβ6 IC50, ELISA competition vs LAP; mean, n ≥ 3
integrin αvβ3 [5] = molecular target: T2, integrin αvβ3; assay: ELISA competition assay, integrin αvβ3; format: binding
integrin αvβ1 = integrin αvβ1 (Homo sapiens, UniProt P05556+P06756); assay: ELISA competition assay, integrin αvβ1; format: binding
integrin αvβ8 [6] = molecular target: T3, integrin αvβ8; assay: ELISA competition assay, integrin αvβ8 binding to LAP
integrin αIIbβ3 = molecular target: T4, integrin αIIbβ3 (Homo sapiens, UniProt P05106+P08514); assay: ELISA competition assay, integrin αIIbβ3; format: binding
T4 sequence (P08514 32-993 limits assumed): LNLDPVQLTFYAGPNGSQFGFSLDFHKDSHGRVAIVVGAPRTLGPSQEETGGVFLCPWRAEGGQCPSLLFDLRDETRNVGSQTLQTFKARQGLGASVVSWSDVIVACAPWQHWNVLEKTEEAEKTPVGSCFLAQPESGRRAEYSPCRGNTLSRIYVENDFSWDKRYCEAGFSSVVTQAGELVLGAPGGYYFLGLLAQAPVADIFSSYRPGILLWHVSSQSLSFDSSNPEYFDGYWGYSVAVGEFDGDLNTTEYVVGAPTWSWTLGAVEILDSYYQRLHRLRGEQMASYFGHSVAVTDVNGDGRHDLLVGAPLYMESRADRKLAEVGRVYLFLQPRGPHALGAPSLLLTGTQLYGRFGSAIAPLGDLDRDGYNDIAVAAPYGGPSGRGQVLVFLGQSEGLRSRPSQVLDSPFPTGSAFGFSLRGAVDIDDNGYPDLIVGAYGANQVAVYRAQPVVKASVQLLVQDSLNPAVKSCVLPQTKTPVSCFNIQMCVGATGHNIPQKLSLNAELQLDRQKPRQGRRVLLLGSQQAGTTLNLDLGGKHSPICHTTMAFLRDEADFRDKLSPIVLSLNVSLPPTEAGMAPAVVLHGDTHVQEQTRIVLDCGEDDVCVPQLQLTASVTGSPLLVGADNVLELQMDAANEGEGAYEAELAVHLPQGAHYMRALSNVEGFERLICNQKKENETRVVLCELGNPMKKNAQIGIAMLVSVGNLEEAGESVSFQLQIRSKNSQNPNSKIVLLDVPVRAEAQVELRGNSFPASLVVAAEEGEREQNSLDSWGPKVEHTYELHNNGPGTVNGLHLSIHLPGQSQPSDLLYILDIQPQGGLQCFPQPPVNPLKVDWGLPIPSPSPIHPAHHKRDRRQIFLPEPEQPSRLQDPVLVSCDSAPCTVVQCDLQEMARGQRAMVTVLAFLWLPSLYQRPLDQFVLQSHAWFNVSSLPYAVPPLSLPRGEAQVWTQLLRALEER
T4 sequence (P05106 27-718 limits assumed): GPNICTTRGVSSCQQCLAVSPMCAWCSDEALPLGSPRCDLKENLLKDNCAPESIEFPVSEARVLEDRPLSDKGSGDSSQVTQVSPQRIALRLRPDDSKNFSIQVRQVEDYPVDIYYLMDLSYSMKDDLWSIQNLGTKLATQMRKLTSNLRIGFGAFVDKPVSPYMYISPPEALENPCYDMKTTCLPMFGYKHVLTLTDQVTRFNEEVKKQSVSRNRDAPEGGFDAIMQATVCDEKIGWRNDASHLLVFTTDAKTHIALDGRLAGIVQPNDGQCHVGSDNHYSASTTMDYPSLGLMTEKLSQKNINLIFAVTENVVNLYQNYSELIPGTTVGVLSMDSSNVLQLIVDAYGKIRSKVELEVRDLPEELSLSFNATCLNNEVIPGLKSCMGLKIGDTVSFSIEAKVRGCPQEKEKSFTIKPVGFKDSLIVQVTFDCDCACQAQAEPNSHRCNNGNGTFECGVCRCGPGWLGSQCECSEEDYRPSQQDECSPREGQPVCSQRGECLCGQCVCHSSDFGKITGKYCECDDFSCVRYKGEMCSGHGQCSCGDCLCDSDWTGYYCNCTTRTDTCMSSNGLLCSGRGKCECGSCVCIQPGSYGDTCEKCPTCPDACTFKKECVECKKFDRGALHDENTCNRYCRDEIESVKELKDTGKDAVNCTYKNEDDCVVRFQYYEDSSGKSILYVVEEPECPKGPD

## CC[C@H](C)[C@H](NC(=O)[C@H](CC(C)C)NC(=O)[C@H](CC(=O)O)NC(=O)CNC(=O)[C@H](CCCNC(=N)N)NC(=O)CNC(=O)[C@@H](NC(=O)[C@H](Cc1ccccc1)NC(=O)[C@H](Cc1ccc(O)cc1)NC(=O)[C@@H]1CCC(=O)NCC(=O)NCC(=O)N[C@@H](C)C(=O)NCC(=O)N[C@@H](Cc2c[nH]cn2)C(=O)N[C@@H](C(C)C)C(=O)N2CCC[C@H]2C(=O)N1)C(C)C)C(=O)N[C@@H](CO)C(=O)N[C@@H](Cc1ccccc1)C(=O)N[C@@H](Cc1ccc(O)cc1)C(=O)NCC(=O)O [lassotide 8] (GGAGHVPEYFVGRGDLISFYG-OH; lactam N-8; C-terminus assumed)
Integrin αvβ6 [1]
  IC50: 478 nM
Integrin αvβ3 [2]
  IC50: 2560 nM
Integrin αvβ8 [3]
  IC50: 466 nM

## CC[C@H](C)[C@H](NC(=O)[C@@H]1CCCN1C(=O)[C@@H](NC(=O)[C@H](CCCNC(=N)N)NC(=O)CNC(=O)[C@H](CC(=O)O)NC(=O)[C@H](CC(C)C)NC(=O)[C@H](Cc1ccccc1)NC(=O)[C@H](Cc1ccc(O)cc1)NC(=O)[C@@H]1CCC(=O)NCC(=O)NCC(=O)N[C@@H](C)C(=O)NCC(=O)N[C@@H](Cc2c[nH]cn2)C(=O)N[C@@H](C(C)C)C(=O)N2CCC[C@H]2C(=O)N1)[C@@H](C)O)C(=O)N[C@@H](CO)C(=O)N[C@@H](Cc1ccccc1)C(=O)N[C@@H](Cc1ccc(O)cc1)C(=O)NCC(=O)O [lassotide 9] (GGAGHVPEYFLDGRTPISFYG-OH; lactam N-8; C-terminus assumed)
Integrin αvβ6 [1]
  IC50: > 10000 nM
Integrin αvβ3 [2]
  IC50: > 10000 nM
Integrin αvβ8 [3]
  IC50: 1300 nM

## CC[C@H](C)[C@H](NC(=O)[C@@H]1CCCN1C(=O)[C@H](CC(C)C)NC(=O)[C@H](CC(=O)O)NC(=O)[C@@H]1CCCN1C(=O)[C@H](CCCNC(=N)N)NC(=O)[C@@H](NC(=O)[C@H](Cc1ccccc1)NC(=O)[C@H](Cc1ccc(O)cc1)NC(=O)[C@@H]1CCC(=O)NCC(=O)NCC(=O)N[C@@H](C)C(=O)NCC(=O)N[C@@H](Cc2c[nH]cn2)C(=O)N[C@@H](C(C)C)C(=O)N2CCC[C@H]2C(=O)N1)C(C)C)C(=O)N[C@@H](CO)C(=O)N[C@@H](Cc1ccccc1)C(=O)N[C@@H](Cc1ccc(O)cc1)C(=O)NCC(=O)O [lassotide 10] (GGAGHVPEYFVRPDLPISFYG-OH; lactam N-8; C-terminus assumed)
Integrin αvβ6 [1]
  IC50: > 10000 nM
Integrin αvβ3 [2]
  IC50: > 10000 nM
Integrin αvβ8 [3]
  IC50: > 10000 nM

## CC[C@H](C)[C@H](NC(=O)CNC(=O)[C@@H](NC(=O)[C@H](Cc1ccccc1)NC(=O)[C@H](Cc1ccc(O)cc1)NC(=O)[C@@H]1CCC(=O)NCC(=O)NCC(=O)N[C@@H](CCCNC(=N)N)C(=O)NCC(=O)N[C@@H](CC(=O)O)C(=O)N[C@@H](CC(C)C)C(=O)N2CCC[C@H]2C(=O)N1)C(C)C)C(=O)NCC(=O)N[C@H](C(=O)N1CCC[C@H]1C(=O)N[C@H](C(=O)N[C@@H](CO)C(=O)N[C@@H](Cc1ccccc1)C(=O)N[C@@H](Cc1ccc(O)cc1)C(=O)NCC(=O)O)[C@@H](C)CC)[C@@H](C)O [lassotide 11] (GGRGDLPEYFVGIGTPISFYG-OH; lactam N-8; C-terminus assumed)
Integrin αvβ6 [1]
  IC50: > 10000 nM
Integrin αvβ3 [2]
  IC50: > 10000 nM
Integrin αvβ8 [3]
  IC50: > 10000 nM

## CC(C)C[C@H](NC(=O)[C@H](CC(=O)O)NC(=O)CNC(=O)[C@H](CCCNC(=N)N)NC(=O)[C@@H](NC(=O)[C@H](Cc1ccccc1)NC(=O)[C@H](Cc1ccc(O)cc1)NC(=O)[C@@H]1CCC(=O)NCC(=O)NCC(=O)N[C@@H](CCCCN)C(=O)NCC(=O)N[C@@H](Cc2c[nH]cn2)C(=O)N[C@@H](C(C)C)C(=O)N2CCC[C@H]2C(=O)N1)C(C)C)C(=O)N[C@@H](CCC(N)=O)C(=O)N[C@@H](CO)C(=O)N[C@@H](Cc1ccccc1)C(=O)N[C@@H](Cc1ccc(O)cc1)C(=O)NCC(=O)O [lassotide 37] (GGKGHVPEYFVRGDLQSFYG-OH; lactam N-8; C-terminus assumed)
Integrin αvβ5
  IC50: > 10000 nM
Integrin α8β1
  IC50: > 10000 nM
Integrin α5β1
  IC50: 944 nM
Integrin αvβ6 [4]
  IC50: 3.1 nM
Integrin αvβ3 [5]
  IC50: 186 nM
Integrin αvβ1
  IC50: 21 nM
Integrin αvβ8 [6]
  IC50: 9 nM
Integrin αIIbβ3
  IC50: 394 nM

## CC(C)C[C@H](NC(=O)[C@H](CC(=O)O)NC(=O)CNC(=O)[C@H](CCCNC(=N)N)NC(=O)[C@@H](NC(=O)[C@H](Cc1ccccc1)NC(=O)[C@H](Cc1ccc(O)cc1)NC(=O)[C@@H]1CCC(=O)NCC(=O)NCC(=O)N[C@@H](CCCCNC(=O)CCOCCOCCNC(=O)CCCc2ccc(I)cc2)C(=O)NCC(=O)N[C@@H](Cc2c[nH]cn2)C(=O)N[C@@H](C(C)C)C(=O)N2CCC[C@H]2C(=O)N1)C(C)C)C(=O)N[C@@H](CCC(N)=O)C(=O)N[C@@H](CO)C(=O)N[C@@H](Cc1ccccc1)C(=O)N[C@@H](Cc1ccc(O)cc1)C(=O)NCC(=O)O [lassotide 48] (GGK([PEG2-Butanoyl(4-(4-I-phenyl))])GHVPEYFVRGDLQSFYG-OH; lactam N-8; C-terminus assumed)
Integrin αvβ5
  IC50: > 10000 nM
Integrin α8β1
  IC50: > 10000 nM
Integrin α5β1
  IC50: 2590 nM
Integrin αvβ6 [4]
  IC50: 0.7 nM
Integrin αvβ3 [5]
  IC50: 315 nM
Integrin αvβ1
  IC50: 46 nM
Integrin αvβ8 [6]
  IC50: 0.8 nM
Integrin αIIbβ3
  IC50: 446 nM

Source: publication doi:10.1101/2025.01.28.635346v1 (bioRxiv, 2025)
